From ChEMBL document CHEMBL3769330, “Synthesis of pyrimido[4,5-c]azepine- and pyrimido[4,5-c]oxepine-based γ-secretase modulators” (Bioorg Med Chem Lett, 2016)
Active and inactive are the calls of the source. The rule behind the calls is not given here.

Legend:
[1] = biological target: Gamma-secretase; assay: Modulation of gamma-secretase activity (unknown origin) assessed as amyloid-beta(1-42) production by ELISA; format: protein-complex assay, Homo sapiens
[2] = system: Rattus norvegicus; assay: Reduction of amyloid-beta peptides level in rat brain at 30 mg/kg, po; format: functional, organism-based

CNc1nc(Nc2ccc(-n3cnc(Cl)c3)c(OC)c2)nc2c1C=CCN=C2c1ccccc1
IC50 [1]: 5 nM | inhibition [2]: Active

COc1cc(Nc2nc3c(c(N(C)C)n2)C=CCNC3c2ccccc2)ccc1-n1cnc(Cl)c1 (stereo unspecified)
IC50 [1]: 36 nM

COc1cc(Nc2nc3c(c(N(C)C)n2)C=CCOC3c2ccccc2)ccc1-n1cnc(Cl)c1 (stereo unspecified)
IC50 [1]: 56 nM

COc1cc(Nc2nc3c(c(N(C)C)n2)C=CCN=C3c2ccccc2)ccc1-n1cnc(Cl)c1
IC50 [1]: 21 nM | inhibition [2]: Active
